Assay results from patent publication US10731159B2, “Cationic lipid” (DAIICHI SANKYO COMPANY, LIMITED, priority 2013, dated 2020).

Columns and labels:
[1] = system: human PLK-1 gene; test: Test Example 10: PLK-1 expression inhibition in Hep3B tumor of nude mice; assay type: in vivo; conditions: nude mice with subcutaneous Hep3B tumor, i.v. 1 mg/kg and 3 mg/kg, tumor collected the day after administration; particles of Example 57
Protocol: After acclimatization and raising of each nude mouse (CAnN.Cg-Foxn1[nu]/CrlCrlj[Foxn1nu/Foxn1nu]) for 8 days, cultured human Hep3B cells (1×10^7 cells/mouse) were subcutaneously transplanted to the right lateral region of the mouse. 19 days after the tumor transplantation, the mice were grouped with the tumor volume as an index, and, on the next day, the nucleic acid lipid particle-containing dispersion prepared in Example 57 was intravenously administered (administered at doses of 1 mg/kg and 3 mg/kg) to the tail of each mouse. PBS was administered to a control group. On the day after the administration of the nucleic acid lipid particle, a tumor mass was collected from the cancer-bearing mouse, and a nucleic acid was extracted using QIAzol Lysis Reagent (manufactured by Qiagen N.V.) and chloroform. Then, total RNA was purified using QIAGNE RNeasy Plus Mini kit (manufactured by Qiagen N.V.) according to the attached protocol.
16 μL of the purified RNA and 4 μL of SuperScript VILO Master mix (Life Technologies, Inc.) were mixed and used in RT reaction under conditions given below.
RT reaction: 25° C. for 10 min • 42° C. for 60 min • 85° C. for 5 min. […]
The quantitative analysis was conducted by the ΔΔCt method. A value (ΔΔCt) was determined by subtracting ΔCt of the PBS administration group from the difference in Ct value (ΔCt) between human PLK-1 and human GAPDH in the administration group of each nucleic acid lipid particle, and a relative value (RQ) to the PBS administration group, RQmax, and RQmin were calculated according to the following expressions: RQ=2^−ΔΔCt RQmax=2^−95% CI of ΔΔCt (95% CI of ΔΔCt: the maximum value of 95% confidence interval of ΔΔCt) RQmin=2^−95% CI of ΔΔCt (95% CI of ΔΔCt: the minimum value of 95% confidence interval of ΔΔCt)
In the diagram, error bars were calculated according to the following expression: +error bars:RQmax−RQ,−error bars:RQ−RQmin)

[2] = Rate of encapsulation of polynucleotide/mRNA (Quant-iT RiboGreen, with and without Triton X-100); assay type: physicochemical; conditions: Example 57: PLK1424-2/A siRNA, DPPC:Chol:LP:PEG-C-DSA=7:33.5:57:2.5, N/P 3
Protocol: The rate of encapsulation of the double-stranded polynucleotide was measured using Quant-iT RiboGreen RNA Assay kit (Invitrogen Corp.) according to the attached document.
Specifically, the double-stranded polynucleotide in the nucleic acid lipid particle dispersion was quantified in the presence and absence of a 0.015% Triton X-100 detergent, and the rate of encapsulation was calculated according to the following expression: {[Amount of the double-stranded polynucleotide in the presence of the detergent]−[Amount of the double-stranded polynucleotide in the absence of the detergent]}/[Amount of the double-stranded polynucleotide in the presence of the detergent]}×100(%) (3) Ratio of Double-Stranded Polynucleotide to Lipid
The rate of encapsulation of the mRNA was measured using Quant-iT RiboGreen RNA Assay kit (Invitrogen Corp.) according to the attached document.
Specifically, the mRNA in the nucleic acid lipid particle dispersion was quantified in the presence and absence of a 0.015% Triton X-100 detergent, and the rate of encapsulation was calculated according to the following expression: {[Amount of the mRNA in the presence of the detergent]−[Amount of the mRNA in the absence of the detergent]}/[Amount of the mRNA in the presence of the detergent]}×100(%) (3) Ratio of mRNA to Lipid

[3] = Average particle size of nucleic acid lipid particle (NICOMP 380ZLS); assay type: physicochemical; conditions: Example 57: PLK1424-2/A siRNA, DPPC:Chol:LP:PEG-C-DSA=7:33.5:57:2.5, N/P 3; ± deviation
Protocol: The particle size of the liposome was measured using Zeta Potential/Particle Sizer NICOMP™ 380ZLS (Particle Sizing Systems, LLC). In the tables, the average particle size is indicated by a volume-average particle size, and the numeric value following ±represents a deviation.

[4] = Ratio of polynucleotide/mRNA to lipid (wt/wt); assay type: physicochemical; conditions: Example 57: PLK1424-2/A siRNA, DPPC:Chol:LP:PEG-C-DSA=7:33.5:57:2.5, N/P 3
Protocol: The nucleic acid lipid particle dispersion was mixed with acetonitrile and chloroform at a ratio of 1:1:1 and centrifuged at 15,000 rpm for 2 minutes. Then, the aqueous layer obtained as an upper layer was recovered, followed by the extraction of the double-stranded polynucleotide. The amount of the double-stranded polynucleotide in the sample was measured by ion-exchange chromatography (system: Agilent 1100 series, column: TSKgel DEAE-2SW (2.6×150 mm) (Tosoh Corp), buffer A: 20% acetonitrile, buffer B: 20% acetonitrile and 1.6 M ammonium formate, gradient (B %): 30-55% (0-20 min), flow rate: 1 mL/min, temperature: 40° C., detection: 260 nm).
The amount of the phospholipid in the nucleic acid lipid particle dispersion was measured using Phospholipid C-Test Wako (Wako Pure Chemical Industries Ltd.) according to the attached document. Specifically, the phospholipid in the sample was quantified in the presence of a 1% Triton X-100 detergent.
The amounts of cholesterol and LP in the nucleic acid lipid particle dispersion were measured by reverse-phase chromatography (system: Agilent 1100 series, column: Chromolith Performance RP-18 endcapped 100-3 monolithic HPLC-column (Merck), buffer A: 0.01% trifluoroacetic acid, buffer B: 0.01% trifluoroacetic acid and methanol, gradient (B %): 87-92% (0-10 min), flow rate: 2 mL/min, temperature: 50° C., detection: 205 nm).
The total amount of lipids was calculated from the amount of the phospholipid and the compositional ratio of lipid components constituting the liposome, and the ratio of the polynucleotide to the lipid was calculated from the aforementioned amount of the polynucleotide and the total amount of lipids according to the following expression: [Double-stranded polynucleotide concentration]/[Total lipid concentration] (wt/wt)
The total amount of lipids was calculated from the amount of the phospholipid, the amount of cholesterol, and the amount of LP, and the compositional ratio of lipid components constituting the liposome, and the ratio of the polynucleotide to the lipid was calculated from the aforementioned amount of the polynucleotide and the total amount of lipids according to the following expression: [Double-stranded polynucleotide concentration]/[Total lipid concentration] (wt/wt)
The amount of the double-stranded polynucleotide in a sample from the nucleic acid lipid particle dispersion was measured in the presence of a 5% Triton X-100 detergent by ion-exchange chromatography (system: Agilent 1100 series, column: DNAPac PA200 (4×250 mm) (Thermo Fisher Scientific K.K.), buffer A: 10 mM Tris, 25 mM sodium perchlorate, and 20% ethanol, pH 7.0, buffer B: 10 mM Tris, 250 mM sodium perchlorate, and 20% ethanol, pH 7.0, gradient (B %): 20-70% (0-15 min), flow rate: 0.5 mL/min, temperature: 40° C., detection: 260 nm).
The amounts of cholesterol and LP in the nucleic acid lipid particle dispersion were measured by reverse-phase chromatography (system: Agilent 1100 series, column: Chromolith Performance RP-18 endcapped 100-3 monolithic HPLC-column (Merck), buffer A: 0.01% trifluoroacetic acid, buffer B: 0.01% trifluoroacetic acid and methanol, gradient (B %): 82-92% (0-10 min), flow rate: 2 mL/min, temperature: 50° C., detection: 205 nm).
The total amount of lipids was calculated from the amount of the phospholipid, the amount of cholesterol, and the amount of LP, and the compositional ratio of lipid components constituting the liposome, and the ratio of the mRNA to the lipid was calculated from the “amount of the mRNA in the presence of the detergent” of the preceding paragraph (2) according to the following expression: [mRNA concentration in the presence of the detergent]/[Total lipid concentration] (wt/wt)

Structure (SMILES)	PLK-1 expression inhibitory activity in tumor (in words, FIG. 5) [1]	Rate of polynucleotide encapsulation [2] [%]	Average particle size [3] [nm]	Ratio of polynucleotide to lipid siRNA/lipid [4] [wt/wt]
CCCCCCCCCCCCCCCCCC(CCCCCCCCCC)OC(=O)OCCCN(C)C (stereo not drawn) [Example 19, 3-(Dimethylamino)propyloctacosan-11-yl Carbonate]	strong PLK-1 expression inhibitory activity	97	103 ± 16	0.095
CCCCC/C=C\C/C=C\CCCCCCCCC(COCCCCCCCC/C=C\C[C@@H](CCCCCC)OC(C)=O)OC(=O)OCCCN(C)C (stereo partly drawn) [Example 54, (20,23R)-2-Methyl-9-[(9Z,12Z)-octadeca-9,12-dien-1-yl]-7-oxo-6,8,11-trioxa-2-azanonacos-20-en-23-yl Acetate]	strong PLK-1 expression inhibitory activity	98	127 ± 29	0.078
CCCCCCCCCCCCCCCCCCCC(CCCCCCCCCC)OC(=O)OCCCN(C)C (stereo not drawn) [Example 45, 3-(Dimethylamino)propyl triacontan-11-yl Carbonate]	strong PLK-1 expression inhibitory activity	96	100 ± 27	0.093
